Assay results reported in US20020091144A1, “Treatment of apoptotic cell death” (Johns Hopkins University, priority 2000, published 2002).
Values belong to the compound of their own block, whether it stands above or below them.

Columns and labels:
caspase-3 = assay: Activated caspase-3 immunofluorescent staining; type: cell-based, rat
Method: (§1) Neonatal rat cardiac myocytes in primary culture were randomly assigned to one of four experimental groups: 1) control group, 2) incubation with 200 μM H2O2, 3) 100 μM diazoxide, applied together with 200 μM H2O2, 4) 100 μM diazoxide and 500 μM 5-HD, applied together with 200 μM H2O2. […] Staining was conducted as follows. TUNEL staining was performed according to the manufacturer's protocol (Roche Molecular Biochemicals). Fluorescein labels incorporated in nucleotide polymers were detected by laser scanning confocal microscopy at excitation wavelength of 488 rim (argon laser). […] Necrotic cells had been excluded from these specimens since they became non-adherent and were removed when the medium was decanted and the cell layers were washed in PBS. […] This effect was blocked by the mitoKATP channel antagonist 5-HD (FIG. 1D). […] That immunofluorescence was conducted as follows: cells were plated on glass coverslips, treated with drugs as indicated, fixed in ice-cold 1:1 mixture of methanol/acetone, blocked with 10% normal goat serum and 0.075% saponin in PBS, and incubated with primary antibody dissolved in blocking solution at a dilution of 1:100. […] These coverslips were mounted with antifading fluorescence mounting medium and were examined by a laser scanning confocal microscope (Zeiss, LSM 410), using 40x water-immersion lens and 2x optical zoom. […]

[1] = system: Neonatal rat cardiac myocytes; assay: Mitochondrial membrane potential, JC-1 flow cytometry, cardiac myocytes; type: cell-based
Method: The effects of mitoKATP channel activation by flow cytometry (FIGS. 2F-J) were further quantified. Incubation with 200 μM H2O2 for 2 h decreased the red fluorescence and shifted the distribution curve leftward. […] To confirm the central role of mitoKATP channels, we examined another mitoKATP channel opener, pinacidil.
(§2) Cytoprotective effects of diazoxide in neurons also was evaluated. […] Staining was conducted as follows: loss of mitochondrial membrane potential (ΨΔ) was assessed using either a laser scanning confocal microscope or flow cytometry analysis of cells stained with 5,5′,6,6′-tetrachloro-1,1′,3,3′-tetraethylbenzimidazolecarbocyanide iodine (JC-1, Molecular Probes). Cells were incubated with 2 μg/mL JC-1 for 10 min in 37° C. After washing the dye, cells on dishes were scanned with a confocal microscope at 10x magnification. The dye was excited by the 488 nm line of an argon laser, and the 543 nm line of a helium/neon laser. The red emission of the dye is due to a potential-dependent aggregation in the mitochondria, reflecting ΨΔ. Green fluorescence reflects the monomeric form of JC-1, occuring in the cytosol after mitochondrial membrane depolarization. The fluorescence intensity of the field was measured using integrated image analysis software (Simple32; Compix, Inc.), which was programmed to automatically detect all areas of red or green fluorescence above background. The data are plotted as mean values of arbitrary units of fluorescence intensity. For flow cytometry analysis, cells were harvested by trypsinization after loading of the dye, and analyzed by FACScan (10,000 cells/sample). The excitation wavelength was 488 nm, and the emission fluorescence for JC-1 was monitored at 530 (FL-1) and 582 nm (FL-2). The flow cytometry data are analyzed using Cell Quest (Becton Dickinson, Immunocytometry Systems).

[2] = system: rat cerebellar granule neurons; assay: Mitochondrial membrane potential, JC-1 staining, cerebellar granule neurons; type: cell-based
Method: as §2, with “The red emission of the dye is due to a potential-dependent aggregation in the mitochondria, reflecting ΨΔ.” left out, “The flow cytometry data are analyzed using Cell Quest (Becton Dickinson, Immunocytometry Systems).” left out

cytochrome c = assay: Cytochrome c immunofluorescence (translocation to cytosol); type: cell-based, rat
Method: as §1

PARP holoenzyme = assay: Immunoblot of PARP holoenzyme; type: cell-based, rat
Method: (U) Immunoblot of PARP in neonatal rat cardiac myocytes. Cell lysates from each experimental group were subjected to immunoblot analysis (30 μg protein/lane) with monoclonal antibody against 117-kDa PARP holoenzyme. Cells were treated for either 8 h or 16 hours. To confirm these findings using complementary methods, we examined PARP protein levels as a biochemical indicator of the activation of downstream caspases in each group.

[3] = system: Neonatal rat cardiac myocytes; assay: TUNEL staining of H2O2-induced apoptosis; type: cell-based
Method: Neonatal rat cardiac myocytes in primary culture were randomly assigned to one of four experimental groups: 1) control group, 2) incubation with 200 μM H2O2, 3) 100 μM diazoxide, applied together with 200 μM H2O2, 4) 100 μM diazoxide and 500 μM 5-HD, applied together with 200 μM H2O2. […] Staining was conducted as follows. TUNEL staining was performed according to the manufacturer's protocol (Roche Molecular Biochemicals). Fluorescein labels incorporated in nucleotide polymers were detected by laser scanning confocal microscopy at excitation wavelength of 488 rim (argon laser). […] Necrotic cells had been excluded from these specimens since they became non-adherent and were removed when the medium was decanted and the cell layers were washed in PBS.

[4] = system: Neonatal rat cardiac myocytes; assay: Mitochondrial membrane potential, JC-1 confocal image analysis, cardiac myocytes; type: cell-based
Method: Redistribution of cytochrome c has been linked to the loss of mitochondrial membrane potential (ΨΔ) and the opening of the mitochondrial permeability transition pore (23). We assessed ΨΔ in H2O2-stimulated myocytes using a fluorescent probe, JC-1 (24). […] Cells exposed to 200 μM H2O2 for 2 h lose punctate red staining (FIG. 2B), in favor of a diffuse green cytosolic signal indicative of the loss of ΨΔ. […] The protective effect of diazoxide is blocked by 500 μM 5-HD (FIG. 2D). These observations were rendered quantitative by automated image analysis (24). FIG. 2E summarizes the red fluorescence, an indicator of ΨΔ.
as §2

[5] = system: poly(ADP-ribose) polymerase (PARP); assay: Cleaved PARP immunofluorescent staining; type: cell-based, rat
Method: as §1

caspase-7 = assay: Activated caspase-7 immunofluorescent staining; type: cell-based, rat
Method: as §1

mitoKATP channel = details: intact heart cells; read-out: value for mitoKATP channel activation; cited from earlier work
[6] = 500 μM 5-HD + 100 μM diazoxide + 200 μM H2O2
[7] = 100 μM diazoxide with 200 μM H2O2

- effect on diazoxide inhibition of caspase-3 activation (caspase-3; [6]): negated the effect of diazoxide
- effect on diazoxide inhibition of PARP cleavage [5, 6]: prevented the diazoxide effect
Structure (SMILES): CCCCCC(O)CCCC(=O)O (stereo not shown) [5-HD, 5-hydroxydecanoate]
- effect of 5-HD alone on ΨΔ ([1]; 5-HD 500 μM + H2O2, absence of diazoxide): no effect on ΨΔ
- effect on diazoxide protection of ΨΔ, flow cytometry ([1]; 5-HD 500 μM + diazoxide 100 μM + 200 μM H2O2): abolished the effect of diazoxide
- effect on diazoxide protection of ΨΔ in neurons ([2]; 500 μM 5-HD + 100 μM diazoxide + 100 μM H2O2 for 1 h): blocked
- effect on diazoxide inhibition of cytochrome c translocation (cytochrome c; [6]): abrogated the effect of diazoxide
- effect on diazoxide protection of PARP holoenzyme (PARP holoenzyme; 5-HD + diazoxide + H2O2, 8 h or 16 hours): abolished the protective effect of diazoxide
- effect on diazoxide protection against TUNEL positivity ([3]; 500 μM 5-HD + 100 μM diazoxide + 200 μM H2O2, 16 h): blocked
- effect on diazoxide prevention of loss of ΨΔ, automated image analysis ([4]; 500 μM 5-HD + 100 μM diazoxide + 200 μM H2O2 for 2 h): antagonized the salutary effect of diazoxide
- effect on diazoxide protection of ΨΔ ([4]; 500 μM 5-HD + 100 μM diazoxide + 200 μM H2O2 for 2 h, confocal images): blocked
- effect on diazoxide inhibition of caspase-7 activation (caspase-7; [6]): abolished the anti-apoptosic effect of diazoxide

- loss of 117-kDa PARP holoenzyme band (PARP holoenzyme; diazoxide with H2O2, 8 h or 16 hours): attenuates the loss of PARP holoenzyme
- EC50 ([4]; Rattus norvegicus, 200 μM H2O2 for 2 h, red fluorescence, automated image analysis, read-out: EC50 for prevention of loss of ΨΔ): 40 µM
- H2O2-induced PARP cleavage [5, 7]: inhibited the H2O2-induced PARP cleavage
Structure (SMILES): CC1=NS(=O)(=O)c2cc(Cl)ccc2N1 [diazoxide]
- H2O2-induced activation of caspase-3 (caspase-3; [7]): inhibited the H2O2-induced activation of caspase-3
- H2O2-induced dissipation of ΨΔ, red fluorescence distribution ([1]; diazoxide 20, 50, 100 μM, 200 μM H2O2 for 2 h): prevented the H2O2-induced dissipation of ΨΔ in a dose-dependent manner
- H2O2-induced loss of ΨΔ in neurons, JC-1 red staining ([2]; 100 μM diazoxide, 100 μM H2O2 for 1 h): protects against H2O2-induced loss of mitochondrial integrity
- H2O2-induced cytochrome c translocation to the cytoplasm (cytochrome c; 100 μM diazoxide with 200 μM H2O2, 16 hours): inhibited the translocation of cytochrome c
- H2O2-induced TUNEL positive nuclei ([3]; 100 μM diazoxide with 200 μM H2O2, 16 h): decreased the frequency of H2O2-induced TUNEL positive nuclei
- EC50 (mitoKATP channel): 27 µM
- H2O2-induced loss of mitochondrial membrane potential (ΨΔ), JC-1 red staining ([4]; 100 μM diazoxide, 200 μM H2O2 for 2 h, confocal images): protects against H2O2-induced loss of mitochondrial integrity
- loss of ΨΔ, red fluorescence by automated image analysis ([4]; diazoxide 20-200 μM, 200 μM H2O2 for 2 h): prevented loss of ΨΔ in a dose-dependent manner
- H2O2-induced activation of caspase-7 (caspase-7; [7]): inhibited H2O2-induced activation of caspase-7

Structure (SMILES): COc1ccc(Cl)cc1C(=O)NCCc1ccc(S(=O)(=O)NC(=O)NC2CCCCC2)cc1 [glibenclamide]
- effect of KATP blocker on diazoxide protection of ΨΔ ([1]; glibenclamide 10 μM with diazoxide and H2O2): reversed the salutary effect of diazoxide

Structure (SMILES): CC(N/C(=N\C#N)Nc1ccncc1)C(C)(C)C (stereo not shown) [pinacidil]
- restoring the loss of ΨΔ induced by H2O2 ([1]; 100 μM pinacidil, 200 μM H2O2): equi-effective to diazoxide
